How the values were obtained:
[1] = biological target: T1, HiBit-BRG1 fusion protein (Homo sapiens, UniProt P51532); assay: HiBiT-BRG1 cell-based degradation assay (Nano-Glo HiBiT Lytic Detection, 24 h); details: HeLa cells expressing HiBit-BRG1 and LgBit; for DC50: read-out: BRG1 HiBit Degradation IC50; for Dmax: HeLa, top dose 30 μM, read-out: BRG1 HiBit Degradation Maximum measured
T1 construct: expressed in transfected cells
Outline: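 Degradation is scaled from DMSO-treated cells (0%) to cells given 2 μM of a known BRM/BRG1 degrader (100%). HeLa cells stably carrying HiBiT-BRG1 plus LgBiT (5000/well) were lysed with Nano-Glo HiBiT detection reagent, shaken 10 min at RT, and luminescence read.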

[2] = biological target: T2, HiBit-BRM fusion protein (Homo sapiens, UniProt P51531); assay: HiBiT-BRM cell-based degradation assay (Nano-Glo HiBiT Lytic Detection, 24 h); details: HeLa cells expressing HiBiT-BRM; for DC50: read-out: BRM HiBit Degradation IC50; for BRM HiBit Degradation Maximum measured: top dose 30 μM
T2 construct: expressed in transfected cells
Outline: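 Stable HiBiT-BRM HeLa line; 24 h compound exposure, top final 30 μM, 3-fold, 10 pts in duplicate. Lytic HiBiT/LgBiT luminescence readout. % degradation vs DMSO (0%) and 2 μM known BRM/BRG1 degrader (100%).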

T1 sequence (P51532 whole entry, the tested form may be a part): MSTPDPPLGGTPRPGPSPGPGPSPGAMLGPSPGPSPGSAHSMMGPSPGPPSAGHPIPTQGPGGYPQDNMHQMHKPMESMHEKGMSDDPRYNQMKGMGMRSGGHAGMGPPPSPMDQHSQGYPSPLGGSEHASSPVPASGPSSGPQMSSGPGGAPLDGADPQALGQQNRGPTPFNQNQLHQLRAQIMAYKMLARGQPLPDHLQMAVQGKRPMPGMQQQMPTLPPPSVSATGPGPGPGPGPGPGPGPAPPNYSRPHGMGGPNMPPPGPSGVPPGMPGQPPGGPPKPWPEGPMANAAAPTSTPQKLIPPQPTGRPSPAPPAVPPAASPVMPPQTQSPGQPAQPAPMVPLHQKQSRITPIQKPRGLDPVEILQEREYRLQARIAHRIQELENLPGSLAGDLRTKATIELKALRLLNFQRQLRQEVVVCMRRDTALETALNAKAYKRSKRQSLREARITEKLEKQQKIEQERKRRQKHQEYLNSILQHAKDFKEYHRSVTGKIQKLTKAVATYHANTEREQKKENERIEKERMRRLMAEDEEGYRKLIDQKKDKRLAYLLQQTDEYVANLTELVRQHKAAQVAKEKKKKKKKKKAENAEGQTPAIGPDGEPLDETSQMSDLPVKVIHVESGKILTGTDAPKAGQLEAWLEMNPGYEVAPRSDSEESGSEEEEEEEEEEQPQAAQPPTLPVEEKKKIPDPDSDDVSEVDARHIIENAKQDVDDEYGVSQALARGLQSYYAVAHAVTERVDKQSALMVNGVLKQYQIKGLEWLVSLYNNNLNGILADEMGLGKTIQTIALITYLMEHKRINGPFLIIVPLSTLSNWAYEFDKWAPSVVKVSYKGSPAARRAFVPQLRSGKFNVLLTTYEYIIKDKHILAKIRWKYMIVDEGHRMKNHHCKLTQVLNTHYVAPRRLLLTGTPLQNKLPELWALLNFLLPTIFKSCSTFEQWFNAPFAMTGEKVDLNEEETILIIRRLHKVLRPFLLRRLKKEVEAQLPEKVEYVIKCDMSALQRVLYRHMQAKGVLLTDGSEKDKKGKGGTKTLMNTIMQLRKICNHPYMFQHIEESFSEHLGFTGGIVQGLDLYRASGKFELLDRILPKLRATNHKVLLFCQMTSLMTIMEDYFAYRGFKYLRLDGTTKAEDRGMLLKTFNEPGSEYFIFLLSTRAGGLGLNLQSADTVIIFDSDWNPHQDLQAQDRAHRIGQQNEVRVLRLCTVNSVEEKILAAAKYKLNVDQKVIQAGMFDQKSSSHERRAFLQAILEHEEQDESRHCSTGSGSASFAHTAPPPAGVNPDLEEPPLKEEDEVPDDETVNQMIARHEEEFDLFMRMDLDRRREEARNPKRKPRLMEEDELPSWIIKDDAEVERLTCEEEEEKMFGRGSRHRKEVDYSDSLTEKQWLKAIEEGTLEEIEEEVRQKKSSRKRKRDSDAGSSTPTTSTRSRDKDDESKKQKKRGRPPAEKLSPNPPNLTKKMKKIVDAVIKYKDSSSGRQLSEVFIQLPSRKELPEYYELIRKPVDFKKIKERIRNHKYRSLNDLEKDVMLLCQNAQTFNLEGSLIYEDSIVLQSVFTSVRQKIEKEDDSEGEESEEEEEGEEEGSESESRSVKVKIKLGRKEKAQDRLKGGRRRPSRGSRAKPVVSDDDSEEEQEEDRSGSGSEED
T2 sequence (P51531 whole entry, the tested form may be a part): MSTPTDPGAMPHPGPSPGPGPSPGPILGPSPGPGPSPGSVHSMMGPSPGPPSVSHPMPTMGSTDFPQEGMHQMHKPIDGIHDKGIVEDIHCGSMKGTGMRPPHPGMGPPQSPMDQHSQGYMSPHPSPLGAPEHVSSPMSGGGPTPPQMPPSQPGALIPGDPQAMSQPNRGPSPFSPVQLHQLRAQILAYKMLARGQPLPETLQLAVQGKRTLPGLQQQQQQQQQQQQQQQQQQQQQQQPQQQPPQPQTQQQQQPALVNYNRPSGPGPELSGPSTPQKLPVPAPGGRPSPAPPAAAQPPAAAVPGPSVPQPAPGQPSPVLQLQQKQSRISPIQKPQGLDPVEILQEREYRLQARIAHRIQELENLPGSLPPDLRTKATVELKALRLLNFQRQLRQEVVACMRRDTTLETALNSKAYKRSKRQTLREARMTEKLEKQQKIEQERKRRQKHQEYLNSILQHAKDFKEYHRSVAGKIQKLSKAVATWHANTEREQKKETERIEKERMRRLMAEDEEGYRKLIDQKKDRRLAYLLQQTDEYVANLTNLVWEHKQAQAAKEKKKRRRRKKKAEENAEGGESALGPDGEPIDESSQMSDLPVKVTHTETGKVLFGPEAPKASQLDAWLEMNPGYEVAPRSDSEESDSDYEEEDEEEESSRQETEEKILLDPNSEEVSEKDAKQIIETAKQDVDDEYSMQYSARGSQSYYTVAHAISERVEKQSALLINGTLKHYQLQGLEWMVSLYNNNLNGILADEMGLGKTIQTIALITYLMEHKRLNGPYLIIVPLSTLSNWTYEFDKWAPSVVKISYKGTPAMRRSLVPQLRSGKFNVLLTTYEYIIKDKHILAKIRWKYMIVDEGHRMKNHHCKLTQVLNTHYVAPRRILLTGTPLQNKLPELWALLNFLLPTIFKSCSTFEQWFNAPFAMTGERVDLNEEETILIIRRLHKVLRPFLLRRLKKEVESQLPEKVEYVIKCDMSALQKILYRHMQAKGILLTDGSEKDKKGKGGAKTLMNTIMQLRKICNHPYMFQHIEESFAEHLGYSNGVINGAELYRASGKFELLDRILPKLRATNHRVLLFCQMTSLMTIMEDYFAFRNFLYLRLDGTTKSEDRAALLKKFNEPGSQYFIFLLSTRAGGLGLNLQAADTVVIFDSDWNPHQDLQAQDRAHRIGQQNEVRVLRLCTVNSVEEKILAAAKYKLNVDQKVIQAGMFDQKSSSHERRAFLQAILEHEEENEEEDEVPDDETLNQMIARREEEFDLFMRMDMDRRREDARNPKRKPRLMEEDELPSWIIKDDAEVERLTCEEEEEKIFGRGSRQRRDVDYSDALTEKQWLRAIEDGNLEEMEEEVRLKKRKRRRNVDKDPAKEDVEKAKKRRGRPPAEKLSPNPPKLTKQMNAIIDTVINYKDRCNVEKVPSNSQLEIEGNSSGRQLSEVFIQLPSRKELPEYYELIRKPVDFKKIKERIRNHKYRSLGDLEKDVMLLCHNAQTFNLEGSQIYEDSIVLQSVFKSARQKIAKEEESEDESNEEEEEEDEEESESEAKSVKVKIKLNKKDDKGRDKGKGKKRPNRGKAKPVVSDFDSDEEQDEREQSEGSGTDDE

With Cc1ncsc1-c1ccc(CNC(=O)[C@@H]2C[C@@H](O)CN2C(=O)[C@@H](NC(=O)COCCOCCNC(=O)CCCOCC[C@H](NC(=O)c2ccn(S(C)(=O)=O)c2)C(=O)Nc2nc(-c3ccccc3)cs2)C(C)(C)C)cc1 [Compound 249, (2S,4R)-4-hydroxy-1-[(2S)-2-[2-[2-(2-[4-[(3S)-3-[(1-methanesulfonylpyrrol-3-yl)formamido]-3-[(4-phenyl-1,3-thiazol-2-yl)carbamoyl]propoxy]butanamido]ethoxy)ethoxy]acetamido]-3,3-dimethylbutanoyl]-N-[[4-(4-methyl-1,3-thiazol-5-yl)phenyl]methyl]pyrrolidine-2-carboxamide] the DC50 [1] was over 10 µM, the Dmax [1] was under 50% and the DC50 [2] was over 10 µM. For the same compound, the “BRM HiBit Degradation Maximum measured” value [2] was “C (‘C’ = Maximum degradation <50%)”.

With Cc1ncsc1-c1ccc(CNC(=O)[C@H]2C[C@@H](O)CN2C(=O)[C@@H](NC(=O)COCCOCCOCCNC(=O)CCCOCC[C@H](NC(=O)c2ccn(S(C)(=O)=O)c2)C(=O)Nc2nc(-c3ccccc3)cs2)C(C)(C)C)cc1 [Compound 250, (2R,4R)-4-hydroxy-1-[(2S)-2-(2-[2-[2-(2-[4-[(3S)-3-[(1-methanesulfonylpyrrol-3-yl)formamido]-3-[(4-phenyl-1,3-thiazol-2-yl)carbamoyl]propoxy]butanamido]ethoxy)ethoxy]ethoxy]acetamido)-3,3-dimethylbutanoyl]-N-[[4-(4-methyl-1,3-thiazol-5-yl)phenyl]methyl]pyrrolidine-2-carboxamide] the DC50 [1] was over 10 µM, the Dmax [1] was under 50% and the DC50 [2] was over 10 µM. The “BRM HiBit Degradation Maximum measured” value [2] was “C (‘C’ = Maximum degradation <50%)”.

Compound Cc1ncsc1-c1ccc(CNC(=O)[C@@H]2C[C@@H](O)CN2C(=O)[C@@H](NC(=O)CCCCCNC(=O)CCCOCC[C@H](NC(=O)c2ccn(S(C)(=O)=O)c2)C(=O)Nc2nc(-c3ccccc3)cs2)C(C)(C)C)cc1 [Compound 251, (2S,4R)-4-hydroxy-1-[(2S)-2-(6-[4-[(3S)-3-[(1-methanesulfonylpyrrol-3-yl)formamido]-3-[(4-phenyl-1,3-thiazol-2-yl)carbamoyl]propoxy]butanamido]hexanamido)-3,3-dimethylbutanoyl]-N-[[4-(4-methyl-1,3-thiazol-5-yl)phenyl]methyl]pyrrolidine-2-carboxamide] has a DC50 [1] of over 10 µM, a Dmax [1] of under 50% and a DC50 [2] of over 10 µM. The “BRM HiBit Degradation Maximum measured” value [2] was “C (‘C’ = Maximum degradation <50%)”.

Compound CN(CCNC(=O)CCCOCC[C@H](NC(=O)c1ccn(S(C)(=O)=O)c1)C(=O)Nc1nc(-c2ccccc2)cs1)CCNC(=O)COc1cccc2c1C(=O)N(C1CCC(=O)NC1=O)C2=O.O=CO (stereo partly drawn) [Compound 252, (2S)-4-[3-[(2-[[2-(2-[[2-(2,6-dioxopiperidin-3-yl)-1,3-dioxoisoindol-4-yl]oxy]acetamido)ethyl](methyl)amino]ethyl)carbamoyl]propoxy]-2-[(1-methanesulfonylpyrrol-3-yl)formamido]-N-(4-phenyl-1,3-thiazol-2-yl)butanamide; formic acid] has a DC50 [1] of over 10 µM, a Dmax [1] of under 50% and a DC50 [2] of over 10 µM. For the same compound, the “BRM HiBit Degradation Maximum measured” value [2] was “C (‘C’ = Maximum degradation <50%)”.

Work on CS(=O)(=O)n1ccc(C(=O)N[C@@H](CCOCCCC(=O)NCCS(=O)(=O)CCNc2cccc3c2C(=O)N(C2CCC(=O)NC2=O)C3=O)C(=O)Nc2nc(-c3ccccc3)cs2)c1 (stereo partly drawn) [Compound 253, (2S)-4-(3-[[2-(2-[[2-(2,6-dioxopiperidin-3-yl)-1,3-dioxoisoindol-4-yl]amino]ethanesulfonyl)ethyl]carbamoyl]propoxy)-2-[(1-methanesulfonylpyrrol-3-yl)formamido]-N-(4-phenyl-1,3-thiazol-2-yl)butanamide] yielded a DC50 [1] of over 10 µM, a Dmax [1] of under 50% and a DC50 [2] of over 10 µM. For the same compound, the “BRM HiBit Degradation Maximum measured” value [2] was “C (‘C’ = Maximum degradation <50%)”.

CS(=O)(=O)n1ccc(C(=O)N[C@@H](CCOCCCC(=O)N2CCN(CCCCCOc3ccc4c(c3)C(=O)N(C3CCC(=O)NC3=O)C4=O)CC2)C(=O)Nc2nc(-c3ccccc3)cs2)c1 (stereo partly drawn) [Compound 254, (2S)-4-[4-[4-(5-[[2-(2,6-dioxopiperidin-3-yl)-1,3-dioxoisoindol-5-yl]oxy]pentyl)piperazin-1-yl]-4-oxobutoxy]-2-[(1-methanesulfonylpyrrol-3-yl)formamido]-N-(4-phenyl-1,3-thiazol-2-yl)butanamide] showed a DC50 [1] of over 10 µM, a Dmax [1] of under 50% and a DC50 [2] of over 10 µM. The “BRM HiBit Degradation Maximum measured” value [2] was “C (‘C’ = Maximum degradation <50%)”.

Work on CS(=O)(=O)n1ccc(C(=O)N[C@@H](CCOCCCC(=O)N2CCN(CCCOc3ccc4c(c3)C(=O)N(C3CCC(=O)NC3=O)C4=O)CC2)C(=O)Nc2nc(-c3ccccc3)cs2)c1 (stereo partly drawn) [Compound 255, (2S)-4-[4-[4-(3-[[2-(2,6-dioxopiperidin-3-yl)-1,3-dioxoisoindol-5-yl]oxy]propyl)piperazin-1-yl]-4-oxobutoxy]-2-[(1-methanesulfonylpyrrol-3-yl)formamido]-N-(4-phenyl-1,3-thiazol-2-yl)butanamide] yielded a DC50 [1] of over 10 µM, a Dmax [1] of under 50% and a DC50 [2] of over 10 µM. The “BRM HiBit Degradation Maximum measured” value [2] was “C (‘C’ = Maximum degradation <50%)”.

In the case of CS(=O)(=O)n1ccc(C(=O)N[C@@H](CCOCCCC(=O)N2CC(Oc3ccc4c(c3)C(=O)N(C3CCC(=O)NC3=O)C4=O)C2)C(=O)Nc2nc(-c3ccccc3)cs2)c1 (stereo partly drawn) [Compound 256, (2S)-4-[4-(3-[[2-(2,6-dioxopiperidin-3-yl)-1,3-dioxoisoindol-5-yl]oxy]azetidin-1-yl)-4-oxobutoxy]-2-[(1-methanesulfonylpyrrol-3-yl)formamido]-N-(4-phenyl-1,3-thiazol-2-yl)butanamide], the DC50 [1] is reported as over 10 µM, the Dmax [1] is reported as under 50% and the DC50 [2] is reported as over 10 µM. For the same compound, the “BRM HiBit Degradation Maximum measured” value [2] was “C (‘C’ = Maximum degradation <50%)”.

CS(=O)(=O)n1ccc(C(=O)N[C@@H](CCOCCCC(=O)N2CCC(CCCCN3CCN(c4ccc5c(c4)C(=O)N(C4CCC(=O)NC4=O)C5=O)CC3)CC2)C(=O)Nc2nc(-c3ccccc3)cs2)c1 (some centres unmarked) [Compound 257] showed a DC50 [1] of over 10 µM, a Dmax [1] of under 50% and a DC50 [2] of over 10 µM. The “BRM HiBit Degradation Maximum measured” value [2] was “C (‘C’ = Maximum degradation <50%)”.

In the case of CS(=O)(=O)n1ccc(C(=O)N[C@@H](CCOCCCC(=O)NCCOCCOCCOCCNC(=O)COc2cccc3c2C(=O)N(C2CCC(=O)NC2=O)C3=O)C(=O)Nc2nc(-c3ccccc3)cs2)c1 (stereo partly drawn) [Compound 258, (2S)-4-(3-[[2-(2-[2-[2-(2-[[2-(2,6-dioxopiperidin-3-yl)-1,3-dioxoisoindol-4-yl]oxy]acetamido)ethoxy]ethoxy]ethoxy)ethyl]carbamoyl]propoxy)-2-[(1-methanesulfonylpyrrol-3-yl)formamido]-N-(4-phenyl-1,3-thiazol-2-yl)butanamide], the DC50 [1] is reported as over 10 µM, the Dmax [1] is reported as under 50% and the DC50 [2] is reported as over 10 µM. The “BRM HiBit Degradation Maximum measured” value [2] was “C (‘C’ = Maximum degradation <50%)”.

Work on CS(=O)(=O)n1ccc(C(=O)N[C@@H](CCOCCCC(=O)N2CC(COc3cccc4c3C(=O)N(C3CCC(=O)NC3=O)C4=O)C2)C(=O)Nc2nc(-c3ccccc3)cs2)c1 (stereo partly drawn) [Compound 259, (2S)-4-[4-[3-([[2-(2,6-dioxopiperidin-3-yl)-1,3-dioxoisoindol-4-yl]oxy]methyl)azetidin-1-yl]-4-oxobutoxy]-2-[(1-methanesulfonylpyrrol-3-yl)formamido]-N-(4-phenyl-1,3-thiazol-2-yl)butanamide] yielded a DC50 [1] of over 10 µM, a Dmax [1] of under 50% and a DC50 [2] of over 10 µM. The “BRM HiBit Degradation Maximum measured” value [2] was “C (‘C’ = Maximum degradation <50%)”.

With CS(=O)(=O)n1ccc(C(=O)N[C@@H](CCOCCCC(=O)N2CC(COc3ccc4c(c3)C(=O)N(C3CCC(=O)NC3=O)C4=O)C2)C(=O)Nc2nc(-c3ccccc3)cs2)c1 (stereo partly drawn) [Compound 260, (2S)-4-[4-[3-([[2-(2,6-dioxopiperidin-3-yl)-1,3-dioxoisoindol-5-yl]oxy]methyl)azetidin-1-yl]-4-oxobutoxy]-2-[(1-methanesulfonylpyrrol-3-yl)formamido]-N-(4-phenyl-1,3-thiazol-2-yl)butanamide] the DC50 [1] was over 10 µM, the Dmax [1] was under 50% and the DC50 [2] was over 10 µM. For the same compound, the “BRM HiBit Degradation Maximum measured” value [2] was “C (‘C’ = Maximum degradation <50%)”.

For CS(=O)(=O)n1ccc(C(=O)N[C@@H](CCOCCCC(=O)NCCOCc2cccc(COCCOc3ccc4c(c3)C(=O)N(C3CCC(=O)NC3=O)C4=O)c2)C(=O)Nc2nc(-c3ccccc3)cs2)c1 (stereo partly drawn) [Compound 261, (2S)-4-(3-[[2-([3-[(2-[[2-(2,6-dioxopiperidin-3-yl)-1,3-dioxoisoindol-5-yl]oxy]ethoxy)methyl]phenyl]methoxy)ethyl]carbamoyl]propoxy)-2-[(1-methanesulfonylpyrrol-3-yl)formamido]-N-(4-phenyl-1,3-thiazol-2-yl)butanamide], the DC50 [1] was over 10 µM, the Dmax [1] was under 50% and the DC50 [2] was over 10 µM. The “BRM HiBit Degradation Maximum measured” value [2] was “C (‘C’ = Maximum degradation <50%)”.

In the case of CS(=O)(=O)n1ccc(C(=O)N[C@@H](CCOCCCC(=O)N2CCC3(CC2)CC(Oc2ccc4c(c2)C(=O)N(C2CCC(=O)NC2=O)C4=O)C3)C(=O)Nc2nc(-c3ccccc3)cs2)c1 (stereo partly drawn) [Compound 262, (2S)-4-[4-(2-[[2-(2,6-dioxopiperidin-3-yl)-1,3-dioxoisoindol-5-yl]oxy]-7-azaspiro[3.5]nonan-7-yl)-4-oxobutoxy]-2-[(1-methanesulfonylpyrrol-3-yl)formamido]-N-(4-phenyl-1,3-thiazol-2-yl)butanamide], the DC50 [1] is reported as over 10 µM, the Dmax [1] is reported as under 50% and the DC50 [2] is reported as over 10 µM. For the same compound, the “BRM HiBit Degradation Maximum measured” value [2] was “C (‘C’ = Maximum degradation <50%)”.
